From patent US7759345B2, “Antitumoral derivatives of ET-743” (priority 2001, dated 2010)
Like-named read-outs stand apart in the source and are kept apart here.

How the values were obtained:
K-562 = assay: Inhibition of cells growth by colorimetric assay (SRB), K-562; format: cell-based; conditions: for GI50: read-out: GI50 K-562
Outline: (§1)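 5×10^3 cells/well; 18 h attach; compound 10–10^−8 μg/ml in DMSO/EtOH/PBS (0.5:0.5:99), 48 h, 37 °C, 5% CO2; cold 50% TCA fix 60 min 4 °C; 0.4% SRB 10 min RT; Tris solubilization; OD 490 nm; triplicates.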

A-549 = assay: Inhibition of cells growth by colorimetric assay (SRB), A-549; format: cell-based; conditions: for GI50: read-out: GI50 A-549
Outline: as §1

SK-MEL-28 = assay: Inhibition of cells growth by colorimetric assay (SRB), SK-MEL-28; format: cell-based; conditions: for GI50: read-out: GI50 MEL-28
Outline: as §1

HT-29 = assay: Inhibition of cells growth by colorimetric assay (SRB), HT-29; format: cell-based; conditions: for GI50: read-out: GI50 HT-29
Outline: as §1

LoVo = assay: Inhibition of cells growth by colorimetric assay (SRB), LoVo; format: cell-based; conditions: for GI50: read-out: GI50 LOVO
Outline: as §1

LoVo-Dox = assay: Inhibition of cells growth by colorimetric assay (SRB), LoVo-Dox; format: cell-based; conditions: for GI50: read-out: GI50 LOVO-DOX
Outline: as §1

DU-145 = assay: Inhibition of cells growth by colorimetric assay (SRB), DU-145; format: cell-based; conditions: for GI50: read-out: GI50 DU-145
Outline: as §1

LNCaP = assay: Inhibition of cells growth by colorimetric assay (SRB), LNCaP; format: cell-based; conditions: SRB, 48 hours exposure
Outline: as §1

SK-BR-3 = assay: Inhibition of cells growth by colorimetric assay (SRB), SK-BR-3; format: cell-based; conditions: for GI50: read-out: GI50 SK-BR3
Outline: as §1

IGROV-1 = assay: Inhibition of cells growth by colorimetric assay (SRB), IGROV-1; format: cell-based; conditions: for GI50: read-out: GI50 IGROV
Outline: as §1

IGROV-ET = assay: Inhibition of cells growth by colorimetric assay (SRB), IGROV-ET; format: cell-based; conditions: for GI50: read-out: GI50 IGROV-ET
Outline: as §1

SK-OV-3 = assay: Inhibition of cells growth by colorimetric assay (SRB), SK-OV-3; format: cell-based; conditions: for GI50: read-out: GI50 SK-OV3
Outline: as §1

PANC-1 = assay: Inhibition of cells growth by colorimetric assay (SRB), PANC-1; format: cell-based; conditions: for GI50: read-out: GI50 PANC-1
Outline: as §1

HMEC1 = assay: Inhibition of cells growth by colorimetric assay (SRB), HMEC1; format: cell-based; conditions: for GI50: read-out: GI50 HMEC-1
Outline: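 Using sulforhodamine B, cell growth and viability are quantified after a 48 h drug exposure of cells maintained in RPMI 1640/10% FBS at 37 °C, 5% CO2. Concentrations span 10 to 10^−8 μg/ml; optical density is read at 490 nm.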

Liver = assay: In vitro toxicity, Liver
From the text: (§2) Toxicity was asssessed by the methods reported in Toxicology in Vitro, 15 (2001) 571-577, J. Luber Narod et al.: “Evaluation of the use of in vitro methodolodies as tools for screening new compounds for potential in vivo toxicity”.

Heart = assay: In vitro toxicity, Heart
From the text: as §2

Myelo = assay: In vitro toxicity, Myelo
From the text: as §2

Kidney = assay: In vitro toxicity, Kidney
From the text: as §2

Skeletal = assay: In vitro toxicity, Skeletal
From the text: as §2

[1] = LOVO-DOX, SRB, 48 hours exposure
[2] = IGROV-ET, SRB, 48 hours exposure

With `COc1cc2c(cc1OC(=O)C(F)(F)C(F)(F)C(F)(F)F)CCN[C@]21CS[C@@H]2c3c(OC(C)=O)c(C)c4c(c3[C@H](COC1=O)N1C2[C@H]2c3c(cc(C)c(OC)c3O)C[C@@H]([C@@H]1O)N2C)OCO4` (stereo partly shown) [Compound 74] the GI50 (K-562; Homo sapiens, K562, 48 h) was 0.0526 nM, the LC50 (50% cell killing) (K-562; Homo sapiens, K562, 48 h, read-out: LC50 K-562, K-562, SRB, 48 hours exposure) was 0.661 nM and the “TGI K-562” value (K-562; K-562, SRB, 48 hours exposure) was 2.10E-10. The “TGI A-549” value (A-549; A-549, SRB, 48 hours exposure) was 9.04E-10, the GI50 (A-549; Homo sapiens, A549, 48 h) was 0.399 nM and the LC50 (concentration for 50% cell killing) (A-549; Homo sapiens, A549, 48 h, read-out: LC50 A-549, A-549, SRB, 48 hours exposure) was 6.38 nM. The GI50 (SK-MEL-28; Homo sapiens, SK-MEL-28, 48 h) was 0.275 nM, the CC50 (SK-MEL-28; Homo sapiens, SK-MEL-28, 48 h, read-out: LC50 MEL-28, MEL-28, SRB, 48 hours exposure) was 0.994 nM and the “TGI MEL-28” value (SK-MEL-28; MEL-28, SRB, 48 hours exposure) was 5.22E-10. The “TGI HT-29” value (HT-29; HT-29, SRB, 48 hours exposure) was 8.35E-10, the GI50 (HT-29; Homo sapiens, HT-29, 48 h) was 0.354 nM and the LC50 (concentration for 50% cell killing) (HT-29; Homo sapiens, HT-29, 48 h, read-out: LC50 HT-29, HT-29, SRB, 48 hours exposure) was 10400 nM. For the same molecule, the GI50 (LoVo; Homo sapiens, LoVo, 48 h) was 0.369 nM, the LC50 (concentration for 50% cell killing) (LoVo; Homo sapiens, LoVo, 48 h, read-out: LC50 LOVO, LOVO, SRB, 48 hours exposure) was 11 nM and the “TGI LOVO” value (LoVo; LOVO, SRB, 48 hours exposure) was 1.16E-09. For the same molecule, the GI50 (LoVo-Dox; Homo sapiens, 48 h) was 6.31 nM, the CC50 (LoVo-Dox; Homo sapiens, 48 h, read-out: LC50 LOVO-DOX, LOVO-DOX, SRB, 48 hours exposure) was 359 nM and the “TGI LOVO-DOX” value (LoVo-Dox; [1]) was 6.33E-08. For the same molecule, the “TGI DU-145” value (DU-145; DU-145, SRB, 48 hours exposure) was 7.61E-10, the GI50 (DU-145; Homo sapiens, DU-145, 48 h) was 0.366 nM and the CC50 (DU-145; Homo sapiens, DU-145, 48 h, read-out: LC50 DU-145, DU-145, SRB, 48 hours exposure) was 2790 nM. The GI50 (LNCaP; Homo sapiens, LNCaP, 48 h, read-out: GI50 LNCAP, LNCAP) was 0.129 nM, the CC50 (LNCaP; Homo sapiens, LNCaP, 48 h, read-out: LC50 LNCAP, LNCAP) was 0.564 nM and the “TGI LNCAP” value (LNCaP; LNCAP) was 2.69E-10. For the same molecule, the GI50 (SK-BR-3; Homo sapiens, SK-BR-3, 48 h) was 0.275 nM, the CC50 (SK-BR-3; Homo sapiens, SK-BR-3, 48 h, read-out: LC50 SK-BR3, SK-BR3, SRB, 48 hours exposure) was 4.18 nM and the “TGI SK-BR3” value (SK-BR-3; SK-BR3, SRB, 48 hours exposure) was 7.64E-10. The GI50 (IGROV-1; Homo sapiens, IGROV-1, 48 h) was 0.237 nM, the CC50 (IGROV-1; Homo sapiens, IGROV-1, 48 h, read-out: LC50 IGROV, IGROV, SRB, 48 hours exposure) was 0.911 nM and the “TGI IGROV” value (IGROV-1; IGROV, SRB, 48 hours exposure) was 4.65E-10. The GI50 (IGROV-ET; Homo sapiens, 48 h) was 1.76 nM, the CC50 (IGROV-ET; Homo sapiens, 48 h, read-out: LC50 IGROV-ET, IGROV-ET, SRB, 48 hours exposure) was 19.7 nM and the “TGI IGROV-ET” value (IGROV-ET; [2]) was 4.69E-09. The GI50 (SK-OV-3; Homo sapiens, SK-OV-3, 48 h) was 0.248 nM, the LC50 (SK-OV-3; Homo sapiens, SK-OV-3, 48 h, read-out: LC50 SK-OV3, SK-OV3, SRB, 48 hours exposure) was 1.11 nM and the “TGI SK-OV3” value (SK-OV-3; SK-OV3, SRB, 48 hours exposure) was 4.76E-10. For the same molecule, the GI50 (PANC-1; Homo sapiens, PANC-1, 48 h) was 0.313 nM, the LC50 (concentration for 50% net cell kill) (PANC-1; Homo sapiens, PANC-1, 48 h, read-out: LC50 PANC-1, PANC-1, SRB, 48 hours exposure) was 2.55 nM and the “TGI PANC-1” value (PANC-1; PANC-1, SRB, 48 hours exposure) was 6.77E-10. For the same molecule, the “TGI HMEC-1” value (HMEC1; HMEC-1, SRB, 48 hours exposure) was 1.45E-08, the GI50 (HMEC1; Homo sapiens, HMEC-1, 48 h) was 0.598 nM and the LC50 (HMEC1; Homo sapiens, HMEC-1, 48 h, read-out: LC50 HMEC-1, HMEC-1, SRB, 48 hours exposure) was 4700 nM. The “Toxicity Data Liver” value (Liver) was 3.07E-08, the “Toxicity Data Heart” value (Heart) was 2.86E-08 and the “Toxicity Data Myelo” value (Myelo) was 3.30E-08. The “Toxicity Data Kidney” value (Kidney) was 3.05E-08 and the “Toxicity Data Skeletal” value (Skeletal) was 8.30E-10.
In the case of `C=COC(=O)Oc1cc2c(cc1OC)[C@@]1(CS[C@@H]3c4c(OC(C)=O)c(C)c5c(c4[C@H](COC1=O)N1C3[C@H]3c4c(cc(C)c(OC)c4O)C[C@@H]([C@@H]1O)N3C)OCO5)NCC2` (stereo partly shown) [Compound 75], the LC50 (50% lethal concentration) (K-562; K-562, SRB, 48 hours exposure) is reported as 4.16 nM, the “TGI K-562” value (K-562; K-562, SRB, 48 hours exposure) is reported as 7.42E-10 and the GI50 (K-562; K-562, SRB, 48 hours exposure) is reported as 0.364 nM. For the same molecule, the “TGI A-549” value (A-549; A-549, SRB, 48 hours exposure) was 8.23E-09, the GI50 (A-549; A-549, SRB, 48 hours exposure) was 4.26 nM and the LC50 (50% lethal concentration) (A-549; A-549, SRB, 48 hours exposure, read-out: LC50 A-549) was 49 nM. For the same molecule, the LC50 (concentration killing 50% of cells) (SK-MEL-28; MEL-28, SRB, 48 hours exposure) was 11.7 nM, the “TGI MEL-28” value (SK-MEL-28; MEL-28, SRB, 48 hours exposure) was 4.82E-09 and the GI50 (SK-MEL-28; MEL-28, SRB, 48 hours exposure) was 2 nM. The “TGI HT-29” value (HT-29; HT-29, SRB, 48 hours exposure) was 1.18E-08, the GI50 (HT-29; HT-29, SRB, 48 hours exposure) was 3.89 nM and the CC50 (HT-29; HT-29, SRB, 48 hours exposure, read-out: LC50 HT-29) was 120 nM. The LC50 (concentration killing 50% of cells) (LoVo; LOVO, SRB, 48 hours exposure) was 12 nM, the “TGI LOVO” value (LoVo; LOVO, SRB, 48 hours exposure) was 4.82E-09 and the GI50 (LoVo; LOVO, SRB, 48 hours exposure) was 2.25 nM. The “TGI LOVO-DOX” value (LoVo-Dox; [1]) was 1.23E-07, the GI50 (LoVo-Dox; [1]) was 42.6 nM and the “TGI DU-145” value (DU-145; DU-145, SRB, 48 hours exposure) was 9.47E-10. For the same molecule, the GI50 (DU-145; DU-145, SRB, 48 hours exposure) was 0.563 nM, the CC50 (DU-145; DU-145, SRB, 48 hours exposure, read-out: LC50 DU-145) was 8330 nM and the “TGI LNCAP” value (LNCaP; LNCAP) was 8.31E-10. For the same molecule, the GI50 (LNCaP; LNCAP, read-out: GI50 LNCAP) was 0.579 nM, the CC50 (LNCaP; LNCAP, read-out: LC50 LNCAP) was 1.19 nM and the “TGI SK-BR3” value (SK-BR-3; SK-BR3, SRB, 48 hours exposure) was 3.21E-09. The GI50 (SK-BR-3; SK-BR3, SRB, 48 hours exposure) was 1.2 nM, the CC50 (SK-BR-3; SK-BR3, SRB, 48 hours exposure, read-out: LC50 SK-BR3) was 8.58 nM and the “TGI IGROV” value (IGROV-1; IGROV, SRB, 48 hours exposure) was 1.63E-09. The GI50 (IGROV-1; IGROV, SRB, 48 hours exposure) was 0.52 nM, the CC50 (IGROV-1; IGROV, SRB, 48 hours exposure, read-out: LC50 IGROV) was 10 nM and the “TGI IGROV-ET” value (IGROV-ET; [2]) was 6.58E-09. The GI50 (IGROV-ET; [2]) was 3.38 nM, the CC50 (IGROV-ET; IGROV-ET, SRB, 48 hours exposure, read-out: LC50 IGROV-ET) was 12 nM and the “TGI SK-OV3” value (SK-OV-3; SK-OV3, SRB, 48 hours exposure) was 1.04E-08. For the same molecule, the GI50 (SK-OV-3; SK-OV3, SRB, 48 hours exposure) was 2.19 nM, the LC50 (concentration killing 50% of cells) (PANC-1; PANC-1, SRB, 48 hours exposure) was 35.9 nM and the “TGI PANC-1” value (PANC-1; PANC-1, SRB, 48 hours exposure) was 8.45E-09. For the same molecule, the GI50 (PANC-1; PANC-1, SRB, 48 hours exposure) was 3.04 nM, the “TGI HMEC-1” value (HMEC1; HMEC-1, SRB, 48 hours exposure) was 5.77E-08 and the GI50 (HMEC1; HMEC-1, SRB, 48 hours exposure) was 6.97 nM. The “Toxicity Data Liver” value (Liver) was 4.11E-08, the “Toxicity Data Heart” value (Heart) was 8.17E-08 and the “Toxicity Data Myelo” value (Myelo) was 5.85E-08. The “Toxicity Data Kidney” value (Kidney) was 3.86E-08 and the “Toxicity Data Skeletal” value (Skeletal) was 4.06E-09.
